AC50 data for 13 molecules are collected here from ChEMBL document CHEMBL5291721, “A preclinical secondary pharmacology resource illuminates target-adverse drug reaction associations of marketed drugs” (Nat Commun, 2023).

Some targets named below: Mu-type opioid receptor (Homo sapiens, UniProt P35372); Adenosine receptor A2a (Homo sapiens, UniProt P29274); Melanocortin receptor 3 (Homo sapiens, UniProt P41968).
The target of a further assay is Acetylcholinesterase (Homo sapiens, UniProt P22303). The assay is classed as functional.
Acetylcholinesterase, sequence (P22303 whole entry): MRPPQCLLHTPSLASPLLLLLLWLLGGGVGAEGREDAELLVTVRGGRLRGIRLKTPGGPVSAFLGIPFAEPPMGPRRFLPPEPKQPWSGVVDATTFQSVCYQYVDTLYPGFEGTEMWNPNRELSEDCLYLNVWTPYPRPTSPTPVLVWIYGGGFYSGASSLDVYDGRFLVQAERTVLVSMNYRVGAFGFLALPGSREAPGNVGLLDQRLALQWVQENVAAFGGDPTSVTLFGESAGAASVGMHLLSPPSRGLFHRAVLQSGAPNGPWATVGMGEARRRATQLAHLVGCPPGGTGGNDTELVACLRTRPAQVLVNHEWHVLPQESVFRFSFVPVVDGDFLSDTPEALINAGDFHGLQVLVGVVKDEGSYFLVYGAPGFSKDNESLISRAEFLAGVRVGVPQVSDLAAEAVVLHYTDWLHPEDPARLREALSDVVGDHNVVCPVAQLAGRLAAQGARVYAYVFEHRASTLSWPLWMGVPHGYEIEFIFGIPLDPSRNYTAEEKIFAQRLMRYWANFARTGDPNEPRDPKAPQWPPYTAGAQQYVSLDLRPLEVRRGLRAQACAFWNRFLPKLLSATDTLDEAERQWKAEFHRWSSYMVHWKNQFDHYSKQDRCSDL
The target in the next assay is T1, Androgen receptor (Homo sapiens, UniProt P10275).
T1 sequence (P10275 whole entry): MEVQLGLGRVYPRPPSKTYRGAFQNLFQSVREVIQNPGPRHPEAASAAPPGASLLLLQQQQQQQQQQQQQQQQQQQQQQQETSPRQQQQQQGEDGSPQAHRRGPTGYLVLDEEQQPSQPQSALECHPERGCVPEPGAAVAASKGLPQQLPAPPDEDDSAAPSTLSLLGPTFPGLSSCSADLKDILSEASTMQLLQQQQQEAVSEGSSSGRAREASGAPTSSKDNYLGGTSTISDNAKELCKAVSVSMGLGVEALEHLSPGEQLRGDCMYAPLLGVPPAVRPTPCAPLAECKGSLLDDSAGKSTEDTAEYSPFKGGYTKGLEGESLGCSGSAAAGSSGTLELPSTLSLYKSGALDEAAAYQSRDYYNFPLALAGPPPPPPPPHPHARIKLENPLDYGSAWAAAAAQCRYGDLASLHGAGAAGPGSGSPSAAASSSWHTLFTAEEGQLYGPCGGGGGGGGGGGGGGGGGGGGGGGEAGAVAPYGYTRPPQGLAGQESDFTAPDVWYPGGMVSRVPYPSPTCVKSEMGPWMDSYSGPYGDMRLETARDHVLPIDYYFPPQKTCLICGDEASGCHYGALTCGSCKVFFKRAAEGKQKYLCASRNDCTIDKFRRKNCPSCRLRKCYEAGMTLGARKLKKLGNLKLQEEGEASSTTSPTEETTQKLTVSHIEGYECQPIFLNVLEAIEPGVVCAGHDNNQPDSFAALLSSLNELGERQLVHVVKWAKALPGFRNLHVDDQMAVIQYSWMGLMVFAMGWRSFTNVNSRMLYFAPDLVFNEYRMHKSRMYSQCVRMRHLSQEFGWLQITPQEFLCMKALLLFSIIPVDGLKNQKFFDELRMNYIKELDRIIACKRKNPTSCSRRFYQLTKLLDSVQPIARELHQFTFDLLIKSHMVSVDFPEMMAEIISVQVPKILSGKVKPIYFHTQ

The target of assay [1] is T2, 5-hydroxytryptamine receptor 1A (Homo sapiens, UniProt P08908).
T2 sequence (P08908 whole entry): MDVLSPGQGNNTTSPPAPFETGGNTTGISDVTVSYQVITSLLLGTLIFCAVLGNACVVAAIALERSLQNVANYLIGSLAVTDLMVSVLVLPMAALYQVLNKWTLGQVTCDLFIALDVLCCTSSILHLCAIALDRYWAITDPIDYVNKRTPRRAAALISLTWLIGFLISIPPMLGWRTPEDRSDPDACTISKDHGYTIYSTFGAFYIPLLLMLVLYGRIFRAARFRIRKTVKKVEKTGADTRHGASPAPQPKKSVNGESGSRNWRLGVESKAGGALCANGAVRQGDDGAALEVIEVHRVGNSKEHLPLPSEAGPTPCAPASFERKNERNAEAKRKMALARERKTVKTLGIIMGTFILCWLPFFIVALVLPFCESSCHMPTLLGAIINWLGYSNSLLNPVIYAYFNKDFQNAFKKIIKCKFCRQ

Assay [2] addresses T3, 5-hydroxytryptamine receptor 2B (Homo sapiens, UniProt P41595). The assay is classed as functional, cell-based.
The target of assay [3] is Vascular endothelial growth factor receptor 2 (Homo sapiens, UniProt P35968). The assay is classed as functional.
Assay [4] addresses Sodium-dependent dopamine transporter (Homo sapiens, UniProt Q01959).
Assay [5] concerns the target T4, Alpha-1A adrenergic receptor (Homo sapiens, UniProt P35348).
T4 sequence (P35348 whole entry): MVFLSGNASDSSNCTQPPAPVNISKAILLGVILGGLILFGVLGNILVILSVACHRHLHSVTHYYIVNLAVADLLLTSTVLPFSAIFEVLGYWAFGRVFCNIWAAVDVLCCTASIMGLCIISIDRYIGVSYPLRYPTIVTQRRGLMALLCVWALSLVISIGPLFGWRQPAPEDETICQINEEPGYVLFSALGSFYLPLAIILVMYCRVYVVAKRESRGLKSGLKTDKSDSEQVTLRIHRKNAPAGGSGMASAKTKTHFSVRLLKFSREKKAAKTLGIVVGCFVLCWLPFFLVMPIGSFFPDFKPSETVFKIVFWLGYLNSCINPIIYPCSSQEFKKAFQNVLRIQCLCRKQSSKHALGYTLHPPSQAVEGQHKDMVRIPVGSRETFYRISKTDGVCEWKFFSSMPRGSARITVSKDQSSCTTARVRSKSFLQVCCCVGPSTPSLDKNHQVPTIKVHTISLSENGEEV
In kind it is functional, cell-based.

In assay [6] the target is Gamma-aminobutyric acid receptor subunit alpha-1 (Rattus norvegicus, UniProt P62813).
Gamma-aminobutyric acid receptor subunit alpha-1, sequence (P62813 whole entry): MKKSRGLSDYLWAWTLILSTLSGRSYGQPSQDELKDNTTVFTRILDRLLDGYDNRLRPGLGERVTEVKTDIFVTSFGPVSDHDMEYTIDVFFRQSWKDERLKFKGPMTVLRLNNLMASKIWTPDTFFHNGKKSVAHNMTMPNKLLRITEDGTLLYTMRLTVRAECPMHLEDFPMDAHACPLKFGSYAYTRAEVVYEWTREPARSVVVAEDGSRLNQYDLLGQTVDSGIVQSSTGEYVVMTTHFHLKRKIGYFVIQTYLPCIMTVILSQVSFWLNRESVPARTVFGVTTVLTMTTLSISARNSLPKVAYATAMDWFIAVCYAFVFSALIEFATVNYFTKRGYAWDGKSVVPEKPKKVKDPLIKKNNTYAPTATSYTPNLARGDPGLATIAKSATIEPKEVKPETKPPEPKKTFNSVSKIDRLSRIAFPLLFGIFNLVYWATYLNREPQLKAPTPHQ
Assay [7] deals with T5, Alpha-2A adrenergic receptor (Homo sapiens, UniProt P08913).
T5 sequence (P08913 whole entry): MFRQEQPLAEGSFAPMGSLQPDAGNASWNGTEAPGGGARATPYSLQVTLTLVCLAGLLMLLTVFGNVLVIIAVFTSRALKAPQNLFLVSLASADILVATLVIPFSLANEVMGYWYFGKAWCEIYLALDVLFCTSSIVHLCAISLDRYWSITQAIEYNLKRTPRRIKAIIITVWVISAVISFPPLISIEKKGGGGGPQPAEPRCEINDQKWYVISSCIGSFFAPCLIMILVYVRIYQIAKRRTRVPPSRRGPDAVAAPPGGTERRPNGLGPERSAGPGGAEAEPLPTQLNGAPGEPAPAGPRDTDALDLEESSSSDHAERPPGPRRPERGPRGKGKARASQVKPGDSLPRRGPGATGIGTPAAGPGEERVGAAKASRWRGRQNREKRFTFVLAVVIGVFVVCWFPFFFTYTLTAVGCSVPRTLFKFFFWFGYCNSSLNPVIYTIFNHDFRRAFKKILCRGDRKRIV
The assay is classed as functional, cell-based.

Assay [8] addresses T3, 5-hydroxytryptamine receptor 2B. The assay is classed as functional, cell-based. The source holds these as a separate data set.
In assay [9] the target is 3',5'-cyclic-AMP phosphodiesterase 4D (Homo sapiens, UniProt Q08499). The assay is classed as functional.
3',5'-cyclic-AMP phosphodiesterase 4D, sequence (Q08499 whole entry): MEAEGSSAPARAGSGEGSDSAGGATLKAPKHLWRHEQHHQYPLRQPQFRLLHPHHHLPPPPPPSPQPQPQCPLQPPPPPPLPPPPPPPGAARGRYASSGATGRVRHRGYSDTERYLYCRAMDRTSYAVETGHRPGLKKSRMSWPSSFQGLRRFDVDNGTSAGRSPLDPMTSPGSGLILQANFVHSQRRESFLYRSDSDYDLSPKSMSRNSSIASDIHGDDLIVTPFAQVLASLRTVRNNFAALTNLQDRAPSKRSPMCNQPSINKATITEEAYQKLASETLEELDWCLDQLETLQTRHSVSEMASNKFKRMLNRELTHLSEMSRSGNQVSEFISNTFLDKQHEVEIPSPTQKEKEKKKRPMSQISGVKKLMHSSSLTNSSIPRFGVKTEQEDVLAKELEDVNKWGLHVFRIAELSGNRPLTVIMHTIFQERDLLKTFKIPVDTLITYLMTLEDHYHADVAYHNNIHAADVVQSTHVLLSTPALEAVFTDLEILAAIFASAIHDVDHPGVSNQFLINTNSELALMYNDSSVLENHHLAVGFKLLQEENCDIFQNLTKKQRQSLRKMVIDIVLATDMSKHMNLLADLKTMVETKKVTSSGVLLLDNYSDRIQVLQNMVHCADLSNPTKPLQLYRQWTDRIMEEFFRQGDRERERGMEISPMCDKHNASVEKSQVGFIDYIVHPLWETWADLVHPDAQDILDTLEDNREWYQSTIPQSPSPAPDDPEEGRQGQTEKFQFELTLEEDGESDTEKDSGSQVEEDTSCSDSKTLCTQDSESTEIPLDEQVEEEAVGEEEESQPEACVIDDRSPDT
Assay [10] addresses cGMP-inhibited 3',5'-cyclic phosphodiesterase 3A (Homo sapiens, UniProt Q14432). In kind it is functional.

The term AC50 denotes the midpoint of the concentration-response curve, whichever way the signal moves. Read a low AC50 as greater potency.
Further: assay procedure not described here.

Melanocortin receptor 3, sequence (P41968 whole entry): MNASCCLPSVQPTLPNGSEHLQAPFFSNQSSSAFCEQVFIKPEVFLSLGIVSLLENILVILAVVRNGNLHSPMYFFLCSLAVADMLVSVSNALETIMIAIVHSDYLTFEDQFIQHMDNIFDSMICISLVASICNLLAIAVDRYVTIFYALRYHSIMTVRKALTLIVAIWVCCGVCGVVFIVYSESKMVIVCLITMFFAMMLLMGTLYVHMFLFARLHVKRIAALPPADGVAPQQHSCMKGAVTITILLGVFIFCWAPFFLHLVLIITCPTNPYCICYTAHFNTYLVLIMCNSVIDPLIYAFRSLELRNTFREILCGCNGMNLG
Sodium-dependent dopamine transporter, sequence (Q01959 whole entry): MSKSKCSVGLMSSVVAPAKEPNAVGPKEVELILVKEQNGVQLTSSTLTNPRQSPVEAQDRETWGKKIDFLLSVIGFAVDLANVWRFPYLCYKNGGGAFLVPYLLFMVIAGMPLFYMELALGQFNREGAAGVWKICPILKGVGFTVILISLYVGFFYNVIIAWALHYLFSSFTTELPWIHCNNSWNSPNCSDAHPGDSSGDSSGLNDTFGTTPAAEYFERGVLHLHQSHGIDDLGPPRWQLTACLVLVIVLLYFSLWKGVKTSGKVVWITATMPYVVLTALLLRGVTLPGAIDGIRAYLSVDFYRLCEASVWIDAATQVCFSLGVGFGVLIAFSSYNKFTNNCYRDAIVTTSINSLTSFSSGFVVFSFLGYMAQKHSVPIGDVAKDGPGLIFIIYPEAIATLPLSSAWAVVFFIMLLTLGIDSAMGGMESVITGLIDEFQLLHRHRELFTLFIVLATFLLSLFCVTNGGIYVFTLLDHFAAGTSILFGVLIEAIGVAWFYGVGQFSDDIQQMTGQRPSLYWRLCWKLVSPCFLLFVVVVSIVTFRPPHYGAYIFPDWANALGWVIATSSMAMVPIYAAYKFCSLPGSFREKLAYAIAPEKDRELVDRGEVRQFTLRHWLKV
T3 sequence (P41595 whole entry): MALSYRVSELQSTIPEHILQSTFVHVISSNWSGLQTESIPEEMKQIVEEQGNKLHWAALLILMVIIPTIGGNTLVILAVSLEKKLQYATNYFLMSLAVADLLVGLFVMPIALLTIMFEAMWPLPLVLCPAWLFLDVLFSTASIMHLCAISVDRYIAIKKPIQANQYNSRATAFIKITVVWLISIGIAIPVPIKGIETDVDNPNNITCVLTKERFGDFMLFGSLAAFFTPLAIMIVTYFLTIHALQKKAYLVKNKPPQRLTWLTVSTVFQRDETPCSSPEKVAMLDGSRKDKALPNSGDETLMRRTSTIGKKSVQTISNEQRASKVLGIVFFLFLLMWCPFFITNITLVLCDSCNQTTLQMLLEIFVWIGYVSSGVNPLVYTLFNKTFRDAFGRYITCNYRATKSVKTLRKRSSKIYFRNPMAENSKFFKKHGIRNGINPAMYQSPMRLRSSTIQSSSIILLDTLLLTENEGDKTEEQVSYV
cGMP-inhibited 3',5'-cyclic phosphodiesterase 3A, sequence (Q14432 whole entry): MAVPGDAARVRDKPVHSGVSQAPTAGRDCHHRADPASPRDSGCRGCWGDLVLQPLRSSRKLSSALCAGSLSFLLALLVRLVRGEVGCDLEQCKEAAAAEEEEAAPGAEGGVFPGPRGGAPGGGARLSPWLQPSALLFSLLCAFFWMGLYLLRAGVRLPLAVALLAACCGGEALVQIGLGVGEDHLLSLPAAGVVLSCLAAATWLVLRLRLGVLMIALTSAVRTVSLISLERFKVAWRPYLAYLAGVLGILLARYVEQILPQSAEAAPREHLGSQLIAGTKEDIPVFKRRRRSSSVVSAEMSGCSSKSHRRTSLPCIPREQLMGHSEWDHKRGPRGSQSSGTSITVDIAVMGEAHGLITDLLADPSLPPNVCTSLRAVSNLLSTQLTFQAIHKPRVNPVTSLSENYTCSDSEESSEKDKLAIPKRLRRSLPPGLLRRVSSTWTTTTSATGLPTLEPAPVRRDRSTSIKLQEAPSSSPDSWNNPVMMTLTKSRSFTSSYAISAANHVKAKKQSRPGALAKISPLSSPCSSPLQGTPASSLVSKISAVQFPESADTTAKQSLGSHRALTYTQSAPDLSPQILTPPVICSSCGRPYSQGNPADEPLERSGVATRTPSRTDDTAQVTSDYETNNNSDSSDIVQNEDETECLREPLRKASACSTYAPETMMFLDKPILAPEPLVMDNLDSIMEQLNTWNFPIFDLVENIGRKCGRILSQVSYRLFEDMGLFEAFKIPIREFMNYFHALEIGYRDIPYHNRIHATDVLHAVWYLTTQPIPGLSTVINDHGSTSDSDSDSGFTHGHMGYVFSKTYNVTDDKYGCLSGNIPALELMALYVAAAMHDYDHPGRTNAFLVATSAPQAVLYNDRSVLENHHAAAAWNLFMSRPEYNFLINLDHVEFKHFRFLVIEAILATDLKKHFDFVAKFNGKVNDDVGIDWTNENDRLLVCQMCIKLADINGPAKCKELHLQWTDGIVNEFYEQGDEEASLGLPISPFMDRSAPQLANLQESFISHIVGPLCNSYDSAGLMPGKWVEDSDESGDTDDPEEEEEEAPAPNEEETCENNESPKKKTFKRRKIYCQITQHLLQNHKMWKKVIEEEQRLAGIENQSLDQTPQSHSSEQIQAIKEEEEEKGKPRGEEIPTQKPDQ
Adenosine receptor A2a, sequence (P29274 whole entry): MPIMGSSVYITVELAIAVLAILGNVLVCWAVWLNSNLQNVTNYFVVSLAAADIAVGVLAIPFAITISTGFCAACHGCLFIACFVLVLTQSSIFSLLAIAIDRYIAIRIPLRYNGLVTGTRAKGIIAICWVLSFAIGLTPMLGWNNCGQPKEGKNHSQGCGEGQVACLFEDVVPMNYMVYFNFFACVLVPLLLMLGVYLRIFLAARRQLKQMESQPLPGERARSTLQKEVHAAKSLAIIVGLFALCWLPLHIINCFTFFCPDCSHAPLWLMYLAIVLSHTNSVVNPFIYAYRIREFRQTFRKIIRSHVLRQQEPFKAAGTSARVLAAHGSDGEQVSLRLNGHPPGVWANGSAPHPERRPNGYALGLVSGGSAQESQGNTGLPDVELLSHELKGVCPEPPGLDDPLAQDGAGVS

Consider `CCO[C@@H](Cc1ccc(OCCn2c(C)ccc2-c2ccc(SC)cc2)cc1)C(=O)O` [SAROGLITAZAR], for which the AC50 (at Acetylcholinesterase; on Androgen receptor; in assay [1]; in [2]; in assay [3]; on Mu-type opioid receptor) was greater than 30 µM throughout. The molecule further had a concentration at half-maximal activity (AC50) in assay [4] greater than 30 µM.
In the case of `CCCCN(CCCC)CCCOC(=O)c1ccc(N)cc1` [BUTACAINE], the AC50 is greater than 30 µM on Acetylcholinesterase; greater than 30 µM in [5]; greater than 30 µM in [6]; 2.97 µM in assay [1]; greater than 30 µM in [2]; greater than 30 µM in assay [3]. Also, the AC50 on Mu-type opioid receptor was greater than 30 µM; in [4], 2 µM.
As for `O=C1NCC2(CCN(CCc3ccccc3)CC2)O1` [FENSPIRIDE], the AC50 on Acetylcholinesterase was greater than 30 µM; in assay [5], greater than 30 µM; in [6], 25.2 µM; in assay [1], greater than 30 µM; in assay [2] it was greater than 30 µM; in [3], greater than 30 µM. For the same molecule, the AC50 (at Mu-type opioid receptor; in assay [4]) was greater than 30 µM in each case.
Consider `CCN(CC)CCNc1ccc(C)c2sc3ccccc3c(=O)c12` [LUCANTHONE], for which the AC50 at Acetylcholinesterase was greater than 30 µM; on Androgen receptor, greater than 30 µM; in assay [1], 0.523 µM; in assay [2] it was greater than 30 µM; in assay [3], greater than 30 µM; at Mu-type opioid receptor, 11.8 µM. In assay [4], this molecule showed an AC50 of 3.42 µM.
Take `CC1=NN(c2ccccc2)C(=O)C1` [EDARAVONE]: the AC50 (on Acetylcholinesterase; in assay [5]; in [6]; in [1]; in assay [2]; in assay [3]) was greater than 30 µM throughout. Besides, the concentration at half-maximal activity (AC50) (at Mu-type opioid receptor; in assay [4]) was greater than 30 µM in each case.
For `O=C1CCC(N2C(=O)c3ccccc3C2=O)C(=O)N1` (configuration not stated) [THALIDOMIDE], the AC50 at Acetylcholinesterase is greater than 30 µM; on Adenosine receptor A2a, greater than 30 µM; in assay [5], greater than 30 µM; in assay [7], greater than 10 µM; in [6] it was greater than 30 µM; in assay [1], greater than 30 µM. For the same molecule, the AC50 was greater than 10 µM in [8]; greater than 30 µM in assay [2]; greater than 30 µM in [3]; greater than 30 µM at Melanocortin receptor 3; 0.202 µM at Mu-type opioid receptor; greater than 30 µM in [9]. For the same molecule, the AC50 in assay [4] and in assay [10] was greater than 30 µM each time.
Take `CCC1C(C)=NN=C(c2ccc(OC)c(OC)c2)c2cc(OC)c(OC)cc21` (configuration not stated) [TOFISOPAM]: the AC50 (on Acetylcholinesterase; in assay [5]; in [6]; in assay [1]; in assay [2]; in assay [3]) was greater than 30 µM in each case. Besides, the AC50 (at Mu-type opioid receptor; in [4]) was greater than 30 µM throughout.
In the case of `O=C(O)c1cccc(-c2noc(-c3ccccc3F)n2)c1`, the AC50 (at Acetylcholinesterase; on Adenosine receptor A2a; in [5]; in [6]; in assay [1]; in assay [2]) was greater than 30 µM each time. For the same molecule, the AC50 (in assay [3]; on Melanocortin receptor 3; at Mu-type opioid receptor; in [9]; in [4]; in [10]) was greater than 30 µM in each case.
On to `O=C(O)CCn1c2c(c3ccccc31)C[C@H](NS(=O)(=O)c1ccc(F)cc1)CC2` [RAMATROBAN], for which the AC50 on Acetylcholinesterase was greater than 30 µM; on Adenosine receptor A2a, greater than 30 µM; in [5], greater than 30 µM; in assay [7], greater than 10 µM; in assay [6], greater than 30 µM; in [1], greater than 30 µM. Further, the AC50 in [8] is greater than 10 µM; in assay [2], greater than 30 µM; at Melanocortin receptor 3 it was greater than 30 µM; on Mu-type opioid receptor, greater than 30 µM; in assay [9] it was greater than 30 µM; in [4] it was greater than 30 µM. In assay [10], this molecule gave an AC50 greater than 30 µM.
On to `CCC(Cc1c(I)cc(I)c(N)c1I)C(=O)O` (configuration not stated) [IOPANOIC ACID], for which the AC50 on Acetylcholinesterase is greater than 30 µM; in assay [5], 24.2 µM; in assay [6] it was greater than 30 µM; in [1], greater than 30 µM; in assay [2], greater than 30 µM; in assay [3] it was greater than 30 µM. Also, the AC50 (on Mu-type opioid receptor; in [4]) was greater than 30 µM throughout.
Take `CC(=O)O[C@]1(C(C)=O)CC[C@H]2[C@@H]3C[C@H](C)C4=CC(=O)CC[C@]4(C)[C@H]3CC[C@@]21C` [MEDROXYPROGESTERONE ACETATE]: the AC50 at Acetylcholinesterase is greater than 30 µM; at Adenosine receptor A2a it was greater than 30 µM; in assay [5], greater than 30 µM; in assay [6] it was 13.4 µM; in assay [1] it was greater than 30 µM; in assay [2], greater than 30 µM. In addition, the AC50 (on Melanocortin receptor 3; at Mu-type opioid receptor; in [4]) was greater than 30 µM throughout.
For `CCC1(c2cccc(O)c2)CCCCN(C)C1` (configuration not stated) [MEPTAZINOL], the AC50 at Acetylcholinesterase was 5.51 µM; in assay [5] it was greater than 30 µM; in assay [6], greater than 30 µM; in [1] it was greater than 30 µM; in assay [2], greater than 30 µM; in assay [3], greater than 30 µM. The AC50 in assay [4] is greater than 30 µM.
Consider `Nc1ccc(C(=O)O)cc1` [AMINOBENZOIC ACID], for which the AC50 (at Acetylcholinesterase; in assay [5]; in [6]; in assay [1]; in assay [2]; in [3]) was greater than 30 µM each time. The AC50 (at Mu-type opioid receptor; in assay [4]) was greater than 30 µM throughout.
